What was measured:
Assay in all cases: relative viability (nuclei count vs DMSO), 5 days (fraction); higher = more cells survive
[1] = compound: Nc1ccccc1NC(=O)c1ccc(CNC(=O)OCc2cccnc2)cc1 [Entinostat] + O=C(c1cc(Cc2n[nH]c(=O)c3ccccc23)ccc1F)N1CCN(C(=O)C2CC2)CC1 [Olaparib] (partner 8 µM)
How it was run: (§1)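 Nuclei were stained with Hoechst during a one-step fixation (final 0.05% Triton X-100, 1% formaldehyde, 1 ug/ml Hoechst) carried out 5 days after dosing, then counted on 4× images. The cells, lung cancer lines in 1536-well plates, had been dosed by pin tool the day after seeding with one drug alone or a fixed anchor-drug dose plus five library-drug doses (not always all listed) in √10 steps. Relative viability is the nuclei count in treated wells divided by that in vehicle wells, and each value is the median of duplicate plates.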

[2] = compound: Nc1ccccc1NC(=O)c1ccc(CNC(=O)OCc2cccnc2)cc1 [Entinostat] + Cc1cc(Nc2cc(N3CCN(C)CC3)nc(Sc3ccc(NC(=O)C4CC4)cc3)n2)n[nH]1 [Tozasertib] (partner 0.1 µM)
How it was run: as §1

[3] = compound: C1COCCN1C2=NC(=NC3=C2OC4=C3C=CC=N4)C5=CC(=CC=C5)NC(=O)C6=CN=C(C=C6)N + Nc1nc2[nH]cc(CCc3ccc(C(=O)N[C@@H](CCC(=O)O)C(=O)O)cc3)c2c(=O)[nH]1 [Pemetrexed] (partner 0.2 µM)
How it was run: as §1

[4] = compound: C1COCCN1C2=NC(=NC3=C2OC4=C3C=CC=N4)C5=CC(=CC=C5)NC(=O)C6=CN=C(C=C6)N + O=C(CCCCCCC(=O)Nc1ccccc1)NO [Vorinostat] (partner 1 µM)
How it was run: as §1

| Cell Line | relative viability ([1]; first compound 0.02 µM) | relative viability ([1]; first compound 0.06325 µM) | relative viability ([1]; first compound 0.2 µM) | relative viability ([1]; first compound 0.6325 µM) | relative viability ([1]; first compound 2 µM) | relative viability ([2]; first compound 0.02 µM) | relative viability ([2]; first compound 0.06325 µM) | relative viability ([2]; first compound 0.2 µM) | relative viability ([2]; first compound 0.6325 µM) | relative viability ([2]; first compound 2 µM) | relative viability ([3]; first compound 0.02 µM) | relative viability ([3]; first compound 0.06325 µM) | relative viability ([3]; first compound 0.2 µM) | relative viability ([3]; first compound 0.6325 µM) | relative viability ([3]; first compound 2 µM) | relative viability ([4]; first compound 0.02 µM) | relative viability ([4]; first compound 0.06325 µM) | relative viability ([4]; first compound 0.2 µM) | relative viability ([4]; first compound 0.6325 µM) | relative viability ([4]; first compound 2 µM) |
| --- | --- | --- | --- | --- | --- | --- | --- | --- | --- | --- | --- | --- | --- | --- | --- | --- | --- | --- | --- | --- |
| SW 1573 | 0.415 | 0.563 | 0.582 | 0.468 | 0.261 | 0.237 | 0.186 | 0.242 | 0.179 | 0.164 | 0.925 | 0.731 | 0.794 | 0.812 | 0.322 | 0.737 | 0.953 | 0.705 | 0.552 | 0.451 |
| LU99A | 0.236 | 0.264 | 0.274 | 0.198 | 0.164 | 0.281 | 0.294 | 0.292 | 0.239 | 0.228 | 0.204 | 0.183 | 0.223 | 0.184 | 0.178 | 0.435 | 0.546 | 0.365 | 0.418 | 0.309 |
| NCI-H1299 | 1.03 | 0.923 | 0.965 | 0.702 | 0.585 | – | – | – | – | – | – | – | – | – | – | – | – | – | – | – |
| NCI-H1355 | 0.669 | 0.698 | 0.647 | 0.535 | 0.356 | 0.525 | 0.484 | 0.412 | 0.303 | 0.275 | 1.04 | 1.05 | 1.01 | 0.944 | 0.924 | 0.695 | 0.737 | 0.614 | 0.598 | 0.538 |
| HARA | 0.761 | 0.944 | 0.675 | 0.876 | 0.314 | 0.121 | 0.123 | 0.138 | 0.117 | 0.0945 | 0.253 | 0.261 | 0.204 | 0.246 | 0.141 | 0.463 | 0.597 | 0.51 | 0.431 | 0.361 |
| LXF-289 | 1.07 | 0.978 | 0.875 | 0.714 | 0.523 | 0.203 | 0.172 | 0.204 | 0.17 | 0.145 | 0.945 | 1 | 0.873 | 0.923 | 0.647 | 0.792 | 0.895 | 0.619 | 0.821 | 0.547 |
| 201T | 0.838 | 0.775 | 0.694 | 0.489 | 0.459 | 0.898 | 0.811 | 0.589 | 0.501 | 0.385 | 0.285 | 0.301 | 0.307 | 0.38 | 0.34 | 0.964 | 1.03 | 0.931 | 0.94 | 0.769 |
| HCC-827 | 0.587 | 0.623 | 0.488 | 0.322 | 0.237 | 0.425 | 0.406 | 0.335 | 0.302 | 0.184 | 0.249 | 0.284 | 0.262 | 0.278 | 0.265 | 0.792 | 1.05 | 0.868 | 0.661 | 0.811 |
| NCI-H1703 | 0.388 | 0.435 | 0.545 | 0.7 | 0.454 | – | – | – | – | – | – | – | – | – | – | – | – | – | – | – |
| NCI-H1975 | 0.73 | 0.637 | 0.484 | 0.324 | 0.211 | 0.516 | 0.352 | 0.249 | 0.122 | 0.115 | 0.327 | 0.296 | 0.293 | 0.292 | 0.23 | 0.675 | 0.689 | 0.631 | 0.624 | 0.389 |
| NCI-H2023 | 0.327 | 0.253 | 0.185 | 0.0826 | 0.0815 | 0.218 | 0.221 | 0.138 | 0.0768 | 0.0712 | 0.278 | 0.222 | 0.196 | 0.166 | 0.134 | 0.602 | 0.747 | 0.506 | 0.623 | 0.319 |
| ChaGo-K-1 | 0.426 | 0.425 | 0.497 | 0.358 | 0.331 | 0.256 | 0.227 | 0.211 | 0.197 | 0.19 | 0.271 | 0.256 | 0.251 | 0.237 | 0.237 | 0.746 | 0.829 | 0.73 | 0.67 | 0.515 |
| COR-L 105 | 0.683 | 0.825 | 0.773 | 0.483 | 0.407 | 0.372 | 0.291 | 0.309 | 0.273 | 0.286 | 1.13 | 1.25 | 0.967 | 1.16 | 0.642 | 0.787 | 0.839 | 0.701 | 0.768 | 0.603 |
| NCI-H2170 | 0.565 | 0.557 | 0.515 | 0.341 | 0.215 | 0.685 | 0.677 | 0.461 | 0.391 | 0.172 | 0.263 | 0.274 | 0.259 | 0.258 | 0.247 | 0.93 | 0.997 | 0.643 | 0.729 | 0.518 |
| A549 | 0.332 | 0.375 | 0.334 | 0.258 | 0.232 | – | – | – | – | – | – | – | – | – | – | – | – | – | – | – |
| NCI-H1993 | 1.25 | 1.11 | 1.01 | 0.892 | 0.375 | 0.615 | 0.605 | 0.519 | 0.542 | 0.487 | 0.619 | 0.666 | 0.607 | 0.583 | 0.475 | 0.831 | 0.701 | 0.634 | 0.723 | 0.563 |
| Calu-6 | 0.603 | 0.539 | 0.637 | 0.381 | 0.323 | – | – | – | – | – | – | – | – | – | – | – | – | – | – | – |
| NCI-H1648 | 0.769 | 0.624 | 0.673 | 0.615 | 0.512 | 0.566 | 0.483 | 0.414 | 0.411 | 0.341 | 0.743 | 0.893 | 0.819 | 0.754 | 0.554 | 0.313 | 0.306 | 0.42 | 0.281 | 0.294 |
| NCI-H1623 | – | – | – | – | – | 0.498 | 0.442 | 0.373 | 0.352 | 0.305 | – | – | – | – | – | – | – | – | – | – |
| NCI-H322M | 0.722 | 0.952 | 0.887 | 0.815 | 0.618 | 0.505 | 0.555 | 0.519 | 0.461 | 0.448 | 0.685 | 0.588 | 0.565 | 0.628 | 0.621 | 0.823 | 0.85 | 0.851 | 0.904 | 0.764 |

Source: the supplement of paper PMC10307832
